Results as given in US9522888B2, “Substituted bicyclic compounds” (BRISTOL-MYERS SQUIBB COMPANY, priority 2014, dated 2016).

The molecules below were run against S1P1 (membranes prepared from S1P1/CHO cells) (Homo sapiens (Human), UniProt P21453) (assay: Receptor [35S] GTPγS binding assay (S1P1 GTPγS)). Conditions: phosphate examples; read-out: S1P1 GTPγS.
Assay type: biochemical
Outline: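 Membranes from S1P1-expressing CHO cells (3 μg protein/well) incubated with compound (11-point, 3-fold dilution) and 0.2 nM final [35S]GTPγS, 45 min at room temperature. Assay buffer: 20 mM HEPES pH 7.5, 10 mM MgCl2, 150 mM NaCl, 10 μM GDP, 0.1% fatty-acid-free BSA, 10 μg/ml saponin. Filter-bound radioactivity counted by scintillation; EC50 derived.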

Chain of S1P1 (membranes prepared from S1P1/CHO cells) (P21453 whole entry): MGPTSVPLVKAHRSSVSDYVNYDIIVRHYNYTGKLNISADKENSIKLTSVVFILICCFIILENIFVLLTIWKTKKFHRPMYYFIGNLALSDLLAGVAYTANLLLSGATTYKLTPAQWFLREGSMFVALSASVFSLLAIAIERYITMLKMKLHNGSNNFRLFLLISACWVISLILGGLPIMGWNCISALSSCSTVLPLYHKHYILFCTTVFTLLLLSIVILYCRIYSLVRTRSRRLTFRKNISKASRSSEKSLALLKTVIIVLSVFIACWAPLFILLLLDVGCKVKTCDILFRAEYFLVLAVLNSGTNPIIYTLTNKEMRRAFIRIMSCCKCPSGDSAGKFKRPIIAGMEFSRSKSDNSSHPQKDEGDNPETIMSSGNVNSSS

First: C=CCCCC[C@@H]1CCc2cc([C@H]3CC[C@](N)(COP(=O)(O)O)C3)ccc2C1 [compound 555]
Second: CCCCCC1CCc2cc([C@H]3CC[C@](N)(COP(=O)(O)O)C3)ccc2C1 (stereo partly shown) [compound 576]
The EC50 of the first is lower: 10 to 100 nM for the first, 100 to 1000 nM for the second. The first is the more potent here.

`CCC=CCOC[C@@H]1CCc2cc([C@H]3CC[C@](N)(COP(=O)(O)O)C3)ccc2C1` [compound 456] and `N[C@]1(COP(=O)(O)O)CC[C@H](c2ccc3c(c2)CC[C@@H](COCCCC(F)(F)F)C3)C1` [compound 451] cannot be ordered by EC50: under 10 nM for the first, under 10 nM for the second.

First: CC(C)c1ccccc1SC[C@@H]1CCc2cc([C@H]3CC[C@](N)(COP(=O)(O)O)C3)ccc2C1 [compound 530]
Second: Cc1cccc(C)c1SC[C@@H]1CCc2cc([C@H]3CC[C@](N)(COP(=O)(O)O)C3)ccc2C1 [compound 523]
The EC50 of the first is lower: under 10 nM for the first, 100 to 1000 nM for the second.

First: CCCCCO[C@H]1CCc2cc([C@@H]3CC[C@](N)(COP(=O)(O)O)C3)ccc2C1 [compound 434]
Second: COc1cccc(CO[C@H]2CCc3cc([C@H]4CC[C@](N)(COP(=O)(O)O)C4)ccc3C2)c1 [compound 442]
The EC50 of the first is higher: 10 to 100 nM for the first, under 10 nM for the second. The second is the more potent here.

First: COc1cc(CC[C@H]2CCc3cc([C@@H]4CC[C@@](N)(COP(=O)(O)O)C4)ccc3C2)ccc1F (single isomer, unassigned) [compound 608]
Second: COc1cccc(CCC[C@@H]2CCc3cc([C@H]4CC[C@](N)(COP(=O)(O)O)C4)ccc3C2)c1 [compound 564]
The EC50 of the first is lower: under 10 nM for the first, 10 to 100 nM for the second. The first is the more potent here.

Each molecule was assayed against hS1P1/CHO cells (Homo sapiens (Human), UniProt P21453) (assay: hS1P1 ERK phosphorylation (S1P1 pERK)). Conditions: phosphate examples.
Chain of hS1P1/CHO cells (P21453 whole entry): as above
Assay type: cell-based
Outline: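 CHO cells expressing human S1P1, serum-starved 2 h, exposed to compound in HBSS/20 mM HEPES for 7 min at 37° C. Lysates assayed for phospho-ERK by SureFire kit; response given as % activation relative to 10 μM S1P.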

`C=CCCCC[C@@H]1CCc2cc([C@H]3CC[C@](N)(COP(=O)(O)O)C3)ccc2C1` [compound 555] and `CCCCCC1CCc2cc([C@H]3CC[C@](N)(COP(=O)(O)O)C3)ccc2C1` (stereo partly shown) [compound 576] fall in the same range of EC50: 10 to 100 nM for the first, 10 to 100 nM for the second.

First: CCC=CCOC[C@@H]1CCc2cc([C@H]3CC[C@](N)(COP(=O)(O)O)C3)ccc2C1 [compound 456]
Second: N[C@]1(COP(=O)(O)O)CC[C@H](c2ccc3c(c2)CC[C@@H](COCCCC(F)(F)F)C3)C1 [compound 451]
The EC50 of the first is lower: under 10 nM for the first, 10 to 100 nM for the second.

`CC(C)c1ccccc1SC[C@@H]1CCc2cc([C@H]3CC[C@](N)(COP(=O)(O)O)C3)ccc2C1` [compound 530] and `Cc1cccc(C)c1SC[C@@H]1CCc2cc([C@H]3CC[C@](N)(COP(=O)(O)O)C3)ccc2C1` [compound 523] fall in the same range of EC50: 10 to 100 nM for the first, 10 to 100 nM for the second.

`CCCCCO[C@H]1CCc2cc([C@@H]3CC[C@](N)(COP(=O)(O)O)C3)ccc2C1` [compound 434] and `COc1cccc(CO[C@H]2CCc3cc([C@H]4CC[C@](N)(COP(=O)(O)O)C4)ccc3C2)c1` [compound 442] cannot be ordered by EC50: under 10 nM for the first, under 10 nM for the second.

Compared with `COc1cc(CC[C@H]2CCc3cc([C@@H]4CC[C@@](N)(COP(=O)(O)O)C4)ccc3C2)ccc1F` (single isomer, unassigned) [compound 608], `COc1cccc(CCC[C@@H]2CCc3cc([C@H]4CC[C@](N)(COP(=O)(O)O)C4)ccc3C2)c1` [compound 564] is higher in EC50: under 10 nM for the first, 10 to 100 nM for the second. The first is the more potent here.

Each molecule was assayed against human S1P1 (Homo sapiens (Human), UniProt P21453) (assay: S1P1 binding assay (33P-S1P radioligand competition, CHO cell membranes)). Conditions: phosphate examples; read-out: S1P1 Binding.
Chain of human S1P1 (P21453 whole entry): as above
Outline: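 Radioligand is 33P-S1P, competing for membranes from human S1P1-expressing CHO cells. Membranes resuspended in 50 mM HEPES pH 7.5, 100 mM NaCl, 1 mM MgCl2, 2 mM EDTA.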

First: C=CCCCC[C@@H]1CCc2cc([C@H]3CC[C@](N)(COP(=O)(O)O)C3)ccc2C1 [compound 555]
Second: CCCCCC1CCc2cc([C@H]3CC[C@](N)(COP(=O)(O)O)C3)ccc2C1 (stereo partly shown) [compound 576]
The IC50 of the first is lower: under 10 nM for the first, 10 to 100 nM for the second. The first is the more potent here.

First: CCC=CCOC[C@@H]1CCc2cc([C@H]3CC[C@](N)(COP(=O)(O)O)C3)ccc2C1 [compound 456]
Second: N[C@]1(COP(=O)(O)O)CC[C@H](c2ccc3c(c2)CC[C@@H](COCCCC(F)(F)F)C3)C1 [compound 451]
The IC50 of the first is higher: 10 to 100 nM for the first, under 10 nM for the second. The second is the more potent here.

`CC(C)c1ccccc1SC[C@@H]1CCc2cc([C@H]3CC[C@](N)(COP(=O)(O)O)C3)ccc2C1` [compound 530] and `Cc1cccc(C)c1SC[C@@H]1CCc2cc([C@H]3CC[C@](N)(COP(=O)(O)O)C3)ccc2C1` [compound 523] fall in the same range of IC50: 10 to 100 nM for the first, 10 to 100 nM for the second.

`CCCCCO[C@H]1CCc2cc([C@@H]3CC[C@](N)(COP(=O)(O)O)C3)ccc2C1` [compound 434] and `COc1cccc(CO[C@H]2CCc3cc([C@H]4CC[C@](N)(COP(=O)(O)O)C4)ccc3C2)c1` [compound 442] cannot be ordered by IC50: under 10 nM for the first, under 10 nM for the second.

Compared with `COc1cc(CC[C@H]2CCc3cc([C@@H]4CC[C@@](N)(COP(=O)(O)O)C4)ccc3C2)ccc1F` (single isomer, unassigned) [compound 608], `COc1cccc(CCC[C@@H]2CCc3cc([C@H]4CC[C@](N)(COP(=O)(O)O)C4)ccc3C2)c1` [compound 564] is higher in IC50: under 10 nM for the first, 10 to 100 nM for the second.

What follows are molecules tested against S1P3 (membranes prepared from EDG3-Gal5-bla HEK293T cells) (Homo sapiens (Human), UniProt Q99500) (assay: Receptor [35S] GTPγS binding assay (S1P3 GTPγS)). Conditions: phosphate examples; read-out: S1P3 GTPγS.
Chain of S1P3 (membranes prepared from EDG3-Gal5-bla HEK293T cells) (Q99500 whole entry): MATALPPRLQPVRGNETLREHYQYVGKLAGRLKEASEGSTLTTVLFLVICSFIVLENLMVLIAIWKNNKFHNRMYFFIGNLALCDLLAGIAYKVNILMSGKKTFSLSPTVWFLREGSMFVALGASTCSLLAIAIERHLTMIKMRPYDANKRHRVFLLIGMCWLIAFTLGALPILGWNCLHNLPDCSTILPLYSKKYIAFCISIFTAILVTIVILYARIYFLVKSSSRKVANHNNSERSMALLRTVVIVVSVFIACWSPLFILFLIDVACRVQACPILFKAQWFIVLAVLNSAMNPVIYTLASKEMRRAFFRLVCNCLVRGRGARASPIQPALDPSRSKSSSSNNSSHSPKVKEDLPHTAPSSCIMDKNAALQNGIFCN
Assay type: biochemical
Outline: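 Membranes (3 μg protein/well) from S1P1/CHO cells or EDG3-Gal5-bla HEK293T cells (S1P3) were incubated 45 min at room temperature with 0.2 nM final [35S]GTPγS in HEPES pH 7.5 buffer with 10 μM GDP, MgCl2 and saponin. Bound label counted after filtration; EC50 from 11-point, 3-fold dilutions.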

`C=CCCCC[C@@H]1CCc2cc([C@H]3CC[C@](N)(COP(=O)(O)O)C3)ccc2C1` [compound 555] and `CCCCCC1CCc2cc([C@H]3CC[C@](N)(COP(=O)(O)O)C3)ccc2C1` (stereo partly shown) [compound 576] cannot be ordered by EC50: over 625 nM for the first, over 625 nM for the second.

`CCC=CCOC[C@@H]1CCc2cc([C@H]3CC[C@](N)(COP(=O)(O)O)C3)ccc2C1` [compound 456] and `N[C@]1(COP(=O)(O)O)CC[C@H](c2ccc3c(c2)CC[C@@H](COCCCC(F)(F)F)C3)C1` [compound 451] cannot be ordered by EC50: over 625 nM for the first, over 625 nM for the second.

`CC(C)c1ccccc1SC[C@@H]1CCc2cc([C@H]3CC[C@](N)(COP(=O)(O)O)C3)ccc2C1` [compound 530] and `Cc1cccc(C)c1SC[C@@H]1CCc2cc([C@H]3CC[C@](N)(COP(=O)(O)O)C3)ccc2C1` [compound 523] cannot be ordered by EC50: over 625 nM for the first, over 625 nM for the second.

`CCCCCO[C@H]1CCc2cc([C@@H]3CC[C@](N)(COP(=O)(O)O)C3)ccc2C1` [compound 434] and `COc1cccc(CO[C@H]2CCc3cc([C@H]4CC[C@](N)(COP(=O)(O)O)C4)ccc3C2)c1` [compound 442] cannot be ordered by EC50: over 625 nM for the first, over 625 nM for the second.

`COc1cc(CC[C@H]2CCc3cc([C@@H]4CC[C@@](N)(COP(=O)(O)O)C4)ccc3C2)ccc1F` (single isomer, unassigned) [compound 608] and `COc1cccc(CCC[C@@H]2CCc3cc([C@H]4CC[C@](N)(COP(=O)(O)O)C4)ccc3C2)c1` [compound 564] cannot be ordered by EC50: over 625 nM for the first, over 625 nM for the second.
